Experimental data reported in patent publication US8703822B2, “Method for removing undifferentiated and dedifferentiated stem cell” (Nanyang Polytechnic, priority 2009, dated 2014).
Values after ≈ are worked out from the molar mass of the structure shown. Like-named read-outs stand apart in the source and are kept apart here.

Experiments:
hESCs = assay: light microscopy of hESC colonies cultured on murine feeder cells, hESC-selective killing; assay type: cell-based, human; settings: for selective killing of hESCs (FIG. 4): 24 hr incubation; for lowest concentration at which cytotoxic effects were seen: 2.5 μg/mL = 8 μM; for killing of hESCs (light microscopic images, FIG. 2): JC010 12 and 24 hours, JC011 24 hours; for cytotoxic effect on undifferentiated hESCs (summary) / specificity (hESCs versus feeder cells), compared among JC010, JC011 and JC017: summary of the experimental data
Experimental: (§1) Using the above cell viability assays, various cell types including hESCs, differentiated hESCs, human primary astrocytes and murine feeder cells (mouse embryonic fibroblasts (MEFs)) were treated with one of the analogues synthesized in Examples 1 to 3. The cells were then visualized with 5×, 10×, 20× and 40× objectives using dark field, phase optics and fluorescence microscopy with an Olympus IX51 inverted microscope or Leica MZ8 stereomicroscope.
(§2) In the phase contrast optics images (FIGS. 1A and 1B), the hESCs are seen as dark colonies surrounded by the murine feeder cells (mouse embryonic fibroblasts (MEFs)). In the dark field images (FIGS. 1C and 1D), the hESCs are seen as bright colonies surrounded by the murine feeder cells (mouse embryonic fibroblasts (MEFs)).

[1] = tested on: normal human primary astrocytes; assay: resazurin cell viability assay on normal human primary astrocytes (FIG. 8B); assay type: cell-based
hESC = assay: Trypan Blue cell viability assay on hESC; assay type: cell-based, human; settings: 40 μM; 24 hours (JC011 also 48 hr), compared to untreated hESC
Experimental: The images on the left (A and B) show untreated hESC while the images on the right (C and D) show hESC treated with 40 μM of JC010 for 24 hours. The arrows indicate trypan blue positive dead cells.
The Trypan Blue cell viability assay was conducted by first diluting 10 μL of a cell suspension with 10 μL of 0.4% w/v Trypan Blue solution. The cell suspension and Trypan Blue solution were mixed using a pipette, after which the mixture was incubated at room temperature for 10 minutes. 20 μL of the mixture was then loaded into a charged hemocytometer for visualization under 10× and 20× magnification phase optics microscopy. Cells which stain blue are dead cells.

[2] = tested on: undifferentiated hESCs (H1 cells); assay: resazurin cell viability assay on undifferentiated H1 hESCs (FIG. 7A); assay type: cell-based, human; settings: 40 μM, 24 hr and 48 hr; versus JC005, capsaicin (CAP) and DMSO
Experimental: (§3) The hESCs used are undifferentiated H1 cells, while the murine feeder cells (mouse embryonic fibroblasts (MEFs)) used are J28 C57/BL6J cells. The columns represent the means of 4 experiments while the bars represent relative fluorescence ±s.d. The control was untreated hESCs and untreated murine feeder cells (mouse embryonic fibroblasts (MEFs)) with a final DMSO concentration of 1% v/v while the final sample concentration was 40 μM. * denotes P<0.01, Student's T-test, 2-tail.
(§4) The resazurin cell viability assay was conducted on hESC, differentiated hESCs, osteoblasts, murine feeder cells (mouse embryonic fibroblasts (MEFs)), IPSCs derived from foreskin (IPS-DF19-9 and IPS-foreskin) and CSCs (colon CSCs and breast CSCs). The assay is based on the use of an indicator dye resazurin to measure the metabolic capacity of a cell. […]
(§5) In wells A12-H12, 200 μl/well DMSO were added to provide the Blank reading.
(§6) The percentage of the resazurin activity was calculated based on the following equation:
(§7) The percentage of cell death was calculated based on the following equation: % cell death=100−% activity (Eq. 2) […]
(§8) […] The plates were further incubated at 37° C. for 2 h, after which the plate was read at an excitation wavelength of 535 nm and an emission wavelength of 590 nm with a Tecan Infinite 200 microplate reader.

[3] = tested on: murine feeder cells (mouse embryonic fibroblasts (MEFs)), J28 C57/BL6J cells; assay: resazurin cell viability assay on murine feeder cells (FIG. 7B); assay type: cell-based; settings: 40 μM, 24 hr and 48 hr; versus JC005, capsaicin (CAP) and DMSO
Experimental: as §3, §4, §5, §6, §7, §8

[4] = tested on: differentiated hESCs (H1); assay type: cell-based
Experimental: (§9) The resazurin cell viability assay was conducted on hESC, differentiated hESCs, osteoblasts, murine feeder cells (mouse embryonic fibroblasts (MEFs)), IPSCs derived from foreskin (IPS-DF19-9 and IPS-foreskin) and CSCs (colon CSCs and breast CSCs). The assay is based on the use of an indicator dye resazurin to measure the metabolic capacity of a cell. A viable cell would retain the ability to reduce resazurin to resorufin, which is a highly fluorescent compound.
as §6
(§10) The percentage of cell death was calculated based on the following equation: % cell death=100−% activity (Eq. 2)
(§11) The cells were plated in a 96-well multi-well plate 5 days before the assay. 200 μL of medium containing 10^5/mL cells (i.e. 2×10^4 cells) were used for each well.
The cells were then treated with 12.5 μg/mL of the capsaicin analogues. The final concentration of DMSO used as control was 1% v/v.
[…] The media was then removed from the wells and 100 μL of PBS buffer was added to each well. 20 μL of resazurin was added to each well to give a final resazurin concentration of 8 μg/mL. The plates were further incubated at 37° C. for 2 h, after which the plate was read at an excitation wavelength of 535 nm and an emission wavelength of 590 nm with a Tecan Infinite 200 microplate reader.
bGFG is a critical growth factor that maintains the hESCs in the undifferentiated state. Removal or withdrawal of bGFG induces hESCs to undergo differentiation.

undifferentiated hESCs = assay: dose response curves on undifferentiated hESCs (FIG. 11A); assay type: cell-based, human; settings: from dose response curve FIG. 11A
Source text: In other words, JC010 and JC011 were very cytotoxic against undifferentiated hESCs. It can also be seen from the dose response curve in FIG. 11B, that both analogues were not cytotoxic to differentiated cells.

[5] = tested on: breast CSC cell line (Celprogen Cat#36102-29P-T25); assay: resazurin cell viability assay on breast CSC cell line; assay type: cell-based; settings: 12.5 μg/mL, FIG. 14
Wicell H1 cells = assay: dichlorofluorescin diacetate (DCFH-DA) analysis of reactive oxygen species; assay type: cell-based, human; settings: 12.5 μg/mL, 3 hr
Experimental: Live adherent cells were washed with PBS solution. DCHF-DA solution was then added to the cells in PBS solution at a final working concentration of 10 μM. The mixture was then incubated at room temperature for 5 minutes, and visualized under a fluorescence microscope with FITC filters. Bright green fluorescent cells are indicative of cells with a high content of reactive oxygen species (ROS).

IPS-DF19-9 cells = assay: resazurin cell viability assay on IPS-DF19-9 cells; assay type: cell-based; settings: 12 μg/mL, 16-hour exposure
Experimental: as §9, §6, §10, §11
(§12) The cells were then incubated at 37° C. for about 16 h overnight in 5% CO2. The media was then removed from the wells and 100 μL of PBS buffer was added to each well. 20 μL of resazurin was added to each well to give a final resazurin concentration of 8 μg/mL. The plates were further incubated at 37° C. for 2 h, after which the plate was read at an excitation wavelength of 535 nm and an emission wavelength of 590 nm with a Tecan Infinite 200 microplate reader. […]

IPS-foreskin cells = assay: resazurin cell viability assay on IPS-foreskin cells; assay type: cell-based; settings: 12 μg/mL, 16-hour exposure
Experimental: as §9, §6, §10, §11, §12

[6] = tested on: murine feeder cells (mouse embryonic fibroblasts (MEFs)); assay: light microscopy of murine feeder cells co-cultured with hESCs; assay type: cell-based; settings: summary of the experimental data
Experimental: as §1, §2

[7] = tested on: colon CSC cell line (Celprogen Cat#36112-39P-T25); settings: 12.5 μg/mL, FIG. 13
CSCs = assay: cytotoxic effect on CSCs, summary over colon and breast CSC lines; assay type: cell-based; settings: summary of the experimental data
Experimental: Seven analogues having different side chain lengths (JC010, JC011, JC017, JC040, JC048, JC049 and JC050) were tested for their cytotoxic effect on CSCs using the resazurin cell viability assay. Two CSC cell lines were used, a colon CSC cell line (Celprogen Cat#36112-39P-T25) and a breast CSC cell line (Celprogen Cat#36102-29P-T25).

[8] = comparison value, source not given; cited from earlier work

CCCCCCCCC(=O)NCc1ccc(OC)c(O)c1 [JC005]
selective killing of hESCs (FIG. 4) (hESCs; 12.5 μg/mL (40 μM)): No such killing effect | cell death of normal human primary astrocytes ([1]; 40 μM, FIG. 8B): not cytotoxic | cell death of hESCs (BGO1v) (hESC cell line BGO1v; 40 μM, FIG. 8A): not cytotoxic

CCCCCCCCNC(=O)NCc1ccc(O)c(O)c1 [JC010]
selective killing of hESCs (FIG. 4) (hESCs; 2.5 μg/mL (8 μM)): selectively killed | lowest concentration at which cytotoxic effects were seen (hESCs): 2.5 µg/mL | selective killing of hESCs (FIG. 4) (hESCs; 12.5 μg/mL (40 μM)): selectively killed | killing of hESCs (light microscopic images, FIG. 2) (hESCs; 40 μM): selective and rapid killing of hESCs | cytotoxic effect on undifferentiated hESCs (summary) (hESCs): particularly high cytotoxic effect | killing of hESC in Trypan Blue assay (FIGS. 5 and 6) (hESC): wide spread killing of hESC | relative fluorescence of treated undifferentiated hESCs (H1 cells) [2]: significantly lower | relative fluorescence of treated murine feeder cells [3]: not significantly different | cell death of normal human primary astrocytes [1]: low percentages of cell death | cytotoxic effect on differentiated cells (summary) [4]: relatively low | cytotoxicity to differentiated cells (dose response curve) [4]: not cytotoxic | IC50 (undifferentiated hESCs; Homo sapiens): ~2.5 µg/mL (≈ 8.49 µM) | cell death, breast CSC cell line [5]: about 15% | cell death of hESCs (BGO1v) (hESC cell line BGO1v): high percentages of cell death

CCCCCCCCC(=O)NCc1ccc(O)c(O)c1 [JC011]
selective killing of hESCs (FIG. 4) (hESCs; 2.5 μg/mL (8 μM)): selectively killed | lowest concentration at which cytotoxic effects were seen (hESCs): 2.5 µg/mL | selective killing of hESCs (FIG. 4) (hESCs; 12.5 μg/mL (40 μM)): selectively killed | killing of hESCs (light microscopic images, FIG. 2) (hESCs; 40 μM): selective and rapid killing of hESCs | cytotoxic effect on undifferentiated hESCs (summary) (hESCs): particularly high cytotoxic effect | specificity (hESCs versus feeder cells), compared among JC010, JC011 and JC017 (hESCs): highest specificity | killing of hESC in Trypan Blue assay (FIGS. 5 and 6) (hESC): wide spread killing of hESC | relative fluorescence of treated undifferentiated hESCs (H1 cells) [2]: significantly lower | relative fluorescence of treated murine feeder cells [3]: not significantly different | cell death of normal human primary astrocytes [1]: low percentages of cell death | cytotoxic effect on differentiated cells (summary) [4]: relatively low | cytotoxicity to differentiated cells (dose response curve) [4]: not cytotoxic | killing of differentiated hESCs (relative fluorescence versus control) ([4]; 40 μM, 24 hr, bGFG withdrawn, FIG. 9): did not kill differentiated hESCs | ROS content compared to untreated cells (Wicell H1 cells): decreased significantly | IC50 (in words) (undifferentiated hESCs): at the nanogram level | IPS-DF19-9 cells killed compared to the control (IPS-DF19-9 cells): about 67% | IPS-DF19-9 cells remained alive (IPS-DF19-9 cells): 33% | IPS-foreskin cells killed compared to the control (IPS-foreskin cells): about 62% | IPS-foreskin cells remained alive (IPS-foreskin cells): 38% | cell death, breast CSC cell line [5]: about 15% | cell death of hESCs (BGO1v) (hESC cell line BGO1v): high percentages of cell death

CCCCCCNC(=O)NCc1ccc(O)c(O)c1 [JC017]
killing effect on hESCs (light microscopic images, FIG. 3) (hESCs; 40 μM, 12 hours, compared to FIG. 2): not as selective nor as potent as the effect of the analogues JC010 and JC011 | cytotoxic effect on undifferentiated hESCs (summary) (hESCs): particularly high cytotoxic effect | specificity (hESCs versus feeder cells), compared among JC010, JC011 and JC017 (hESCs): lowest specificity | killing of feeder cells (summary) [6]: some feeder cells were also killed | cell death of normal human primary astrocytes [1]: low percentages of cell death | cell death, breast CSC cell line [5]: about 15% | cell death of hESCs (BGO1v) (hESC cell line BGO1v): high percentages of cell death | cell death, colon CSC cell line [7]: 15-33%

CCCCCCNC(=O)Cc1cc(O)ccc1O [JC025]
selective cytotoxic activity towards undifferentiated or dedifferentiated stem cells (hESC cell line BGO1v): did not exhibit any selective cytotoxic activity

CCCCCCCCNC(=O)Cc1cc(O)ccc1O [JC026]
selective cytotoxic activity towards undifferentiated or dedifferentiated stem cells (hESC cell line BGO1v): did not exhibit any selective cytotoxic activity

CCCCCCCCCC(=O)NCc1ccc(O)c(O)c1 [JC040]
cell death, breast CSC cell line [5]: 25-35% | cytotoxic effect on CSCs (summary) (CSCs): high cytotoxic effect | cell death, colon CSC cell line [7]: ~45%

CCCCCCCCCCCC(=O)NCc1ccc(O)c(O)c1 [JC048]
cell death, breast CSC cell line [5]: ~55% | cytotoxic effect on CSCs (summary) (CSCs): high cytotoxic effect | cell death, colon CSC cell line [7]: ~45%

CCCCCCCCCCC(=O)NCc1ccc(O)c(O)c1 [JC049]
cell death, breast CSC cell line [5]: 25-35% | cytotoxic effect on CSCs (summary) (CSCs): high cytotoxic effect | cell death, colon CSC cell line [7]: 15-33%

CCCCCCCCCCCCCC(=O)NCc1ccc(O)c(O)c1 [JC050]
cell death, breast CSC cell line [5]: 25-35%

COc1cc(CNC(=O)CCCC/C=C/C(C)C)ccc1O [capsaicin]
concentration for in vitro cytotoxic effect [8]: 100 µM
